Experiment [1] concerns the target T1, Prostaglandin G/H synthase 1 (Ovis aries, UniProt P05979).
T1 sequence (P05979 whole entry): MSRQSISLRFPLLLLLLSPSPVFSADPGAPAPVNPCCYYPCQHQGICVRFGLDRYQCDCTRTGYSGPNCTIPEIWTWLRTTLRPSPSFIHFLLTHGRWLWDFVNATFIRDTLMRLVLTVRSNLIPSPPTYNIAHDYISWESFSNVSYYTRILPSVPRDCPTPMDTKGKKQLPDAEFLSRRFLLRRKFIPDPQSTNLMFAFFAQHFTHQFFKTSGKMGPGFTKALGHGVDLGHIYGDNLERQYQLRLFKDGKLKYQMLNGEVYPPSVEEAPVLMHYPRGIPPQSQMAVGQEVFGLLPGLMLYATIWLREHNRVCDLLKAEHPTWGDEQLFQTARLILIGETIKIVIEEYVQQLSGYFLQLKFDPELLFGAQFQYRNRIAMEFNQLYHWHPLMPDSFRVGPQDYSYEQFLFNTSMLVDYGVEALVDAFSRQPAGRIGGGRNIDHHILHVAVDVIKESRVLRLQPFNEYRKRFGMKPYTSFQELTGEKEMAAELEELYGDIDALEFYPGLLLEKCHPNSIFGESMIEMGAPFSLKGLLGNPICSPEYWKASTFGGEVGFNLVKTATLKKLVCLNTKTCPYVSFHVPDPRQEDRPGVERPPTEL
Description: Inhibition of the ovine Prostaglandin G/H synthase 1 was determined by thin-layer chromatography assay.

Experiment [2] concerns the target T2, Prostaglandin G/H synthase 2 (Homo sapiens, UniProt P35354).
T2 sequence (P35354 whole entry): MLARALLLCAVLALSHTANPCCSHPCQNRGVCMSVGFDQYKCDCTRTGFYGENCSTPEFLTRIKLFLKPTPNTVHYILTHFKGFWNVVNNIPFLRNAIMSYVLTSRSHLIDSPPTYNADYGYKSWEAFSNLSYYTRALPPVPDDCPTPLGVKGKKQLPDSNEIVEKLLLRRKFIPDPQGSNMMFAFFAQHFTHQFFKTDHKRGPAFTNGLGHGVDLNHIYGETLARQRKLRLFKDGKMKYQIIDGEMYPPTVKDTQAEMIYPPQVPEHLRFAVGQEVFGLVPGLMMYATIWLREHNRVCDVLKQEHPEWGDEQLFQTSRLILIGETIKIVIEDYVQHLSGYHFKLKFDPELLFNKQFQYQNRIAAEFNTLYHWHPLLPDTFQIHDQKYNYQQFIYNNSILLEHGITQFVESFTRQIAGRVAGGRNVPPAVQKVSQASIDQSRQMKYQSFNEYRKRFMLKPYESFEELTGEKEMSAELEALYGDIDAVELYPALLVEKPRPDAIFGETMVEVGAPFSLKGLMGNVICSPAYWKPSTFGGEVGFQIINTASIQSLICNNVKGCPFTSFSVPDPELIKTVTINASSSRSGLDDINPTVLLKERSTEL
Description: Inhibition of the human Prostaglandin G/H synthase 2 was determined by thin-layer chromatography assay

Experiment [3] can be described thus: Inhibitory concentration against prostaglandin E2.
Experiment [4] deals with T3, Prostaglandin G/H synthase 2 (Mus musculus, UniProt Q05769, R106A).
Description: Inhibition of the Arg120Ala murine COX-2 mutant enzyme
The target in experiment [5] is T3, Prostaglandin G/H synthase 2. Description: Inhibition of the murine Arg120Ala mutant type COX-2.
The target of experiment [6] is T4, Prostaglandin G/H synthase 2 (Mus musculus, UniProt Q05769).
T4 sequence (Q05769 whole entry): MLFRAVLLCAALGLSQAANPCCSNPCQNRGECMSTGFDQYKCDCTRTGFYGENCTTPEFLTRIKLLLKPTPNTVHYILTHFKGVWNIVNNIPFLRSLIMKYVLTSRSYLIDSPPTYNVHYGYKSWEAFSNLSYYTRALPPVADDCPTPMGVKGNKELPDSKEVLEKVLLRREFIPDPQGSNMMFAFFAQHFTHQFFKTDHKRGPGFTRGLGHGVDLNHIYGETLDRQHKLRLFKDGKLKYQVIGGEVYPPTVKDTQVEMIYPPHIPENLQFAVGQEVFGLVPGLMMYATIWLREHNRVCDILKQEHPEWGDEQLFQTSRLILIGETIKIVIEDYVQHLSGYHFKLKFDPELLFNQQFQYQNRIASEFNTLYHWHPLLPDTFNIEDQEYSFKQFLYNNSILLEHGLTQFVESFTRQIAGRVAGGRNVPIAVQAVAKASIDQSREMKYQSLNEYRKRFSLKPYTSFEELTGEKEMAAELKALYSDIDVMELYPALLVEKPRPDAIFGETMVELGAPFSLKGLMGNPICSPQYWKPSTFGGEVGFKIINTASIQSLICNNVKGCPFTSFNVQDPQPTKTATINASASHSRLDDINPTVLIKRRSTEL
Description: Inhibition of the murine wild type Prostaglandin G/H synthase 2.

A value given as a limit tells only on which side of the number the result lay.

T3 sequence (Q05769 18-604 R106A limits assumed): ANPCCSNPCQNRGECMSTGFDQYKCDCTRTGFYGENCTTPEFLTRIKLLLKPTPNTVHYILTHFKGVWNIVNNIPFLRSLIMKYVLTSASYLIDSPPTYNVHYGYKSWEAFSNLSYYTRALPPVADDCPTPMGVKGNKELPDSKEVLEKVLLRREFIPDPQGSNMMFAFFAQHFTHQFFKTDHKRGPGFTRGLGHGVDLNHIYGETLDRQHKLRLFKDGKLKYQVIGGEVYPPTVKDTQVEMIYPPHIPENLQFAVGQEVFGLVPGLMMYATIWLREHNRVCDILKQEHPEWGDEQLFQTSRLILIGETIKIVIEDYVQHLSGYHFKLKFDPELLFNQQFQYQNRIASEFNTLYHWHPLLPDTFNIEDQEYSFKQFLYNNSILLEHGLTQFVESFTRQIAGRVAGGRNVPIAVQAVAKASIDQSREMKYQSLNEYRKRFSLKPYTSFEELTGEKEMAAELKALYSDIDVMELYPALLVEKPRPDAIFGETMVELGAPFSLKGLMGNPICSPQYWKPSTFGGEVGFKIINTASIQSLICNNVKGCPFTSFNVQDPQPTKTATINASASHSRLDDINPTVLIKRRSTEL

By IC50 is commonly meant the concentration that inhibits the measured activity by half. Lower therefore signals greater potency in that assay. Consider `Cc1ccc(Cl)c(Nc2ccccc2C(=O)N[C@@H](C)C(=O)O)c1Cl`, for which the figures for the concentration for half-maximal inhibition (IC50) in experiment [1] and in experiment [2] were 6000 nM and 33000 nM, respectively.
For `CONC(=O)c1ccccc1Nc1c(Cl)ccc(C)c1Cl`, the values for the 50% inhibitory concentration (IC50) in experiment [1] and in experiment [2] were 500 nM and 55000 nM, respectively.
`Cc1ccc(Cl)c(Nc2ccccc2C(=O)NCCCCl)c1Cl`: the values for the IC50 in experiment [1] and in experiment [2] were 60 nM and 2400 nM, respectively.
With `Cc1ccc(Cl)c(Nc2ccccc2C(=O)NCC(=O)O)c1Cl`, the IC50 in experiment [1] is 400 nM; in experiment [2], 300 nM.
In the same order, the values of `Cc1ccc(Cl)c(Nc2ccccc2C(=O)NOCc2ccc([N+](=O)[O-])cc2)c1Cl` are 200 nM and 66000 nM.
As to `Cc1ccc(Cl)c(Nc2ccccc2C(=O)NOCc2ccccc2)c1Cl`, the IC50 in experiment [1] was found to be 1000 nM; in experiment [2] it was 66000 nM.
Turning to `CCCCCCCCNC(=O)c1ccccc1Nc1c(Cl)ccc(C)c1Cl`, the IC50 amounted to 50 nM in experiment [1] and 60 nM in experiment [2].
In the same order, the values of `CC(=O)Nc1ccc(OC(=O)c2ccccc2Nc2c(Cl)ccc(C)c2Cl)cc1` are more than 20000 nM and more than 20000 nM.
Consider `COC(=O)c1ccccc1Nc1c(Cl)ccc(C)c1Cl`, for which the half-inhibitory concentration (IC50) amounted to 17000 nM in experiment [1] and 4000 nM in experiment [2].
In the same order, the values of `COC(=O)CNC(=O)c1ccccc1Nc1c(Cl)ccc(C)c1Cl` are 70 nM and 1200 nM.
For `Cc1ccc(Cl)c(Nc2ccccc2C(=O)NCCBr)c1Cl`, in that order: 70 nM and 2000 nM.
In the case of `COCCNC(=O)c1ccccc1Nc1c(Cl)ccc(C)c1Cl`, the IC50 in experiment [1] came out at 140 nM; in experiment [2] it was 3000 nM.
Consider `Cc1ccc(Cl)c(Nc2ccccc2C(=O)NCCOc2ccccc2)c1Cl`, for which the half-inhibitory concentration (IC50) in experiment [3] amounted to 1800 nM; in experiment [4], 550 nM; in experiment [1], 150 nM; in experiment [2] it was 66000 nM.
For `Cc1ccc(Cl)c(Nc2ccccc2C(=O)N[C@H](C)C(=O)O)c1Cl`, the half-maximal inhibitory concentration (IC50) in experiment [1] is 8000 nM; in experiment [2] it was more than 33000 nM.
For `Cc1ccc(Cl)c(Nc2ccccc2C(=O)NCCc2ccccc2)c1Cl`, in that order: 4500 nM and 4000 nM.
As for `Cc1ccc(Cl)c(Nc2ccccc2C(=O)NCCO)c1Cl`, the values for the IC50 in experiment [1] and in experiment [2] were 600 nM and 1000 nM, respectively.
As for `COC(=O)[C@H](C)NC(=O)c1ccccc1Nc1c(Cl)ccc(C)c1Cl`, the figures for the IC50 in experiment [1] and in experiment [2] were 800 nM and 2600 nM, respectively.
`Cc1ccc(Cl)c(Nc2ccccc2C(=O)O)c1Cl` [MECLOFENAMIC ACID]: the IC50 was found to be 400 nM in experiment [5], 200 nM in experiment [6], 50 nM in experiment [1] and 40 nM in experiment [2].
Regarding `Cc1ccc(Cl)c(Nc2ccccc2C(=O)NOC(C)(C)C)c1Cl`, the IC50 in experiment [1] came out at 8000 nM; in experiment [2] it was 66000 nM.
In the case of `Cc1ccc(Cl)c(Nc2ccccc2C(=O)NNCc2ccccc2)c1Cl`, the IC50 worked out at 5000 nM in experiment [1] and 6300 nM in experiment [2].
As to `COC(=O)[C@@H](C)NC(=O)c1ccccc1Nc1c(Cl)ccc(C)c1Cl`, the 50% inhibitory concentration (IC50) in experiment [1] amounted to 2700 nM; in experiment [2], 6000 nM.
In the same order, the values of `CNC(=O)c1ccccc1Nc1c(Cl)ccc(C)c1Cl` are more than 2000 nM and more than 2000 nM.
For `CCOC(=O)CNC(=O)c1ccccc1Nc1c(Cl)ccc(C)c1Cl`, in that order: 200 nM and 4000 nM.
In the same order, the values of `COCCCNC(=O)c1ccccc1Nc1c(Cl)ccc(C)c1Cl` are 250 nM and 11000 nM.

For the origin of these results see ChEMBL document CHEMBL1135055, “Amide derivatives of meclofenamic acid as selective cyclooxygenase-2 inhibitors” (Bioorg Med Chem Lett, 2002).
